Tested on: immune cells in Colon 26 tumors
Assay: Immune profiling of Colon 26 tumors and draining lymph nodes by flow cytometry (7628 and 8063 Colon 26-XPD)
Format: in vivo, mouse
Conditions: 40 mg/kg every 3h for 3 times on days 0 and 7
Method: HDM201 modulated profiles of immune cells in Colon 26 tumors. Increases in % CD11c^+/CD45^+ myeloid cells (A), % CD8^+/CD45^+ T cells (B), PDL1 MFI in CD45^− cells (C), and % PD1^+/CD45^+ lymphocytes (d). Colon 26 cells were implanted into the right flank of Balb/c mice. When tumors reached ˜60 mm^3, mice were randomized and treated with HDM201 at 40 mg/kg every 3h for 3 times on days 0 and 7. Mice were euthanized, and tumors were collected and processed for FACS analysis on Days 5 and 12 post first dose.
HDM201 modulated profiles of immune cells in Colon 26 tumors. Increases in % CD103^+CD11c^+ DCs (A), % Tbet*EOMES-CD8+/CD45^+ T cells (B), and CD8/Treg ratio (C). Colon 26 Cells were implanted into right flank of Balb/c mice. When tumors reached ˜100 mm^3, mice were randomized and treated with HDM201 at 40 mg/kg every 3h for 3 times on days 0 and 7. Mice were euthanized; tumors and draining lymph nodes were collected and processed for FACS analysis on Days 5 and 12 post first dose.
Colon 26 cells were harvested at 80-95% confluence, washed, and re-suspended in cold PBS at a concentration of 2×10^6 cells/ml. Finally, 0.2×10^6 cells in a total volume of 100 μL were implanted subcutaneously (sc) into the upper right flank of naive Balb/c mice.
The tumor infiltrating lymphocytes (TILs) from tumors were analyzed by flow cytometry for both studies ([…] Colon 26-XPD and 8063 Colon 26-XPD). Lymph node lymphocytes were analyzed for 8063 Colon 26-XPD. The samples were plated into two separate 96 well plates, one for T cell staining (Table Ex3.5) and one for myeloid cell staining (Table Ex3.6).
For Study 7628 Colon26-XPD, tumors and spleens were collected from mice on Day 5 and Day 12 post initiation of treatment. Single cell suspensions were generated according to RDS-2016-00163. Briefly, the tissues were minced with scissors followed by mechanical homogenization in dissociation buffer containing RPMI 1640 (Gibco, Life Technologies) with Liberase™ research grade collagenase (Roche) and DNase 1 recombinase (Roche) using the GentleMAX (Miltenyi). Following a 15 minute incubation at 37° C. in a water bath, the homogenates were quenched with 10% FBS and filtered on a […] cell strainer (Falcon). At the end of this process, the single cell suspension of cells was obtained and 2 million cells were plated into 96-well plates for staining with either a T cell or myeloid cell panel of antibodies.
For Study 8063 Colon 26-XPD, tumors and lymph nodes were collected and then processed both mechanically and enzymatically into a single cell suspension according to RDS-2017-00141. The digestion process involves 4-5 consecutive digestion cycles with new digestion buffer containing DNase I (Roche), Collagenase P (Roche), and dispase (Gibco) in each cycle. At the end of this process, cell suspension was filtered on a […] cell strainer to obtain single cell suspension. Two million cells were plated into 96 well plates for staining of T cell panel or myeloid cell panel antibodies.
Following this, the samples were blocked with a 1:50 dilution of mouse Fc block (Miltenyi Biotec) for 30 minutes on ice. The samples were spun for 5 minutes at 1500 rpm and then stained with a fluorochrome-conjugated surface antibody mix as shown in Table Ex3.5 and Ex3.6 for 60 minutes. During the blocking and staining procedures, cells were maintained at 4° C. and protected from light.
For intracellular staining of T cells, after surface staining, the plates were spun again for 5 minutes at 1500 rpm, and then the cells were fixed and permeabilized overnight using a fix/perm kit (eBioscience). The cells were washed with a permeabilization buffer and then stained with the intracellular antibodies for 1 hour at 4° C. in the dark. The plates were washed twice in permeabilization buffer and suspended in 200 μl PBS. Data acquisition was performed using the LSRFortessa™ (BD Biosciences).
Analysis was performed after each run using FLOWJO v10.0.7 software from Treestar. […]

COc1ncc(-c2nc3c(n2C(C)C)[C@H](c2ccc(Cl)cc2)N(c2cc(Cl)cn(C)c2=O)C3=O)c(OC)n1 [HDM201, (S)-5-(5-Chloro-1-methyl-2-oxo-1,2-dihydro-pyridin-3-yl)-6-(4-chloro-phenyl)-2-(2,4-dimethoxy-pyrimidin-5-yl)-1-isopropyl-5,6-dihydro-1H-pyrrolo[3,4-d]imidazol-4-one]
increased: % CD103+CD11+ DCs | % PD1+CD45+ cells | CD8/Treg ratio | newly primed % Tbet+EOMES−CD8+/CD45+ T cells | % CD11C+CD45+ cells in tumors (Days 5 and 12) | CD8 T cells in tumors (Days 5 and 12)
induced: PDL1 expression (MFI) in CD45− cells

— patent publication US20210363254A1, “PHARMACEUTICAL COMBINATIONS” (Novartis AG, priority 2018, published 2021)
